In patent publication US4376766A, “Anti-sickling agents” (G.D. Searle & Co., priority 1980, dated 1983):
pIC50: −log10 of the molar value.

Legend:
HbS = assay: Rate of polymerisation of HbS: lag time before onset of gelation after temperature jump; format: biochemical, human; conditions: different molar ratios of dipeptide:HbS, FIG. 4
Experimental: The rate of polymerisation of HbS molecules may be followed by spectrophotometrically monitoring the onset of gelation, after a temperature jump from 0° C. to 37° C., in a concentrated HbS solution. An effective anti-sickling agent should reduce the rate of polymerisation by at least ten-fold.

SS cells = assay: Oxygen dissociation curve (P50) of sickle cells; format: cell-based, human
Source text: (§1) The uptake of oxygen by haemoglobin as a function of oxygen pressure gives a measure of the oxygen affinity of the haemoglobin and is often described by the value of P50, i.e. the pressure of oxygen at which haemoglobin is 50% saturated with O2. The P50 for HbS is typically higher than that for HbA, the decreased affinity for O2 compensating for the anaemia associated with the disease by facilitating release of O2 to the tissues. An agent which would decrease the P50 of HbS would cause the deoxy-form of the molecule to be less favoured and would thus inhibit polymerisation. It is possible to correlate the degree of oxygenation of sickle erythrocytes with the ability thereof to assume sickled morphology by counting deoxygenated cells using a light microscope. An anti-sickling agent which reduces the number of sickled cells produced at low oxygen concentrations would be effective in preventing or diminishing a crisis.

[1] = Solubility in physiological buffers; format: physicochemical
whole sickle cells = assay: Microscopic whole cell sickling assay; format: cell-based, human
Source text: as §1
There are fewer sickle cells in the presence of the dipeptide over the entire range of oxygen concentration. […] In vivo, this increased reversibility would reduce the number of circulating irreversibly sickled cells (ISC).

[2] = system: sickle cell haemoglobin (HbS); assay: HbS gelation assay (solubility Csol of deoxygenated HbS); format: biochemical, human
Experimental: A number of in vitro methods have been developed for testing the effects of compounds of the functioning of HbS molecules. One such method determines the ability of a compound to inhibit gel formation in HbS solutions. In this gelation assay, Hb solution in phosphate buffer, pH 7.0, at physiological concentrations are mixed at 0° C. with the test compound and deoxygenated by evacuation. […] The solutions are then transferred to centrifuge tubes and equilibrated at 37° C. for 30 minutes before centrifugation at 150,000 g for 1 hour. The supernatant is decanted from the gel and the Hb concentration (Csol) thereof determined spectrophotometrically. For sickle cell haemoglobin without addition of anti-sickling agent, the Csol is typically 17 gm/dl. This compares with a Csol of 23 gm/dl for haemoglobin extracted from individuals having sickle cell trait.

L-lysine-L-phenylalanine
lag time before gelation (rate of polymerisation) (HbS): increase in the delay before gelation | P50 (SS cells; SS cells + 25 mM peptide, 3 hours incubation at 37° C., 5:1 molar ratio extra-cellular dipeptide:intra-cellular HbS, 51 mm without peptide): 41 mm of mercury | oxygen affinity of cells (SS cells; incubation with peptide): increase in oxygen affinity | solubility in physiological buffers [1]: readily soluble | inhibition of whole cell sickling (whole sickle cells): inhibits whole cell sickling | proportion of sickled cells becoming unsickled as oxygen is made available (whole sickle cells; compared with control): a greater proportion becomes unsickled | pIC50 (whole sickle cells; complete deoxygenation, in vitro dose response, FIG. 9, read-out: extra-cellular concentration reducing the number of sickled cells by 50%): ~2.30 | percentage of sickled cells (whole sickle cells; pre-incubation with peptide, different partial pressures of oxygen): substantially reduced | pre-incubation time sufficient to protect against sickling (whole sickle cells; zero oxygen tension, FIG. 8): 15 min | effect on Csol of HbS ([2]; FIG. 2): increase in Csol | inhibition of gelation of deoxygenated HbS solutions ([2]; in vitro): inhibit the gelation | Csol (solubility of homozygous sickle cell haemoglobin) ([2]; peptide:Hb tetramer ratio of 4.7:1, from linear plot of Csol versus log (peptide:Hb), HbS without agent typically 17 gm/dl): 23 gm/dl | increase of HbS solubility over L-phenylalanine ([2]; relative to L-phenylalanine): four-fold
